{"source": "patent US20250163022A1", "about": "“PARP1 INHIBITORS” (Synnovation Therapeutics, Inc., priority 2021, published 2025)", "data": [{"biological_target": "T1, PARP1 (Homo sapiens, UniProt P09874)", "T1 construct": "HeLa cells (wide-type with PARP1 gene) were purchased from ATCC; host or cells: HeLa (wild type)", "T1 sequence (P09874 whole entry)": "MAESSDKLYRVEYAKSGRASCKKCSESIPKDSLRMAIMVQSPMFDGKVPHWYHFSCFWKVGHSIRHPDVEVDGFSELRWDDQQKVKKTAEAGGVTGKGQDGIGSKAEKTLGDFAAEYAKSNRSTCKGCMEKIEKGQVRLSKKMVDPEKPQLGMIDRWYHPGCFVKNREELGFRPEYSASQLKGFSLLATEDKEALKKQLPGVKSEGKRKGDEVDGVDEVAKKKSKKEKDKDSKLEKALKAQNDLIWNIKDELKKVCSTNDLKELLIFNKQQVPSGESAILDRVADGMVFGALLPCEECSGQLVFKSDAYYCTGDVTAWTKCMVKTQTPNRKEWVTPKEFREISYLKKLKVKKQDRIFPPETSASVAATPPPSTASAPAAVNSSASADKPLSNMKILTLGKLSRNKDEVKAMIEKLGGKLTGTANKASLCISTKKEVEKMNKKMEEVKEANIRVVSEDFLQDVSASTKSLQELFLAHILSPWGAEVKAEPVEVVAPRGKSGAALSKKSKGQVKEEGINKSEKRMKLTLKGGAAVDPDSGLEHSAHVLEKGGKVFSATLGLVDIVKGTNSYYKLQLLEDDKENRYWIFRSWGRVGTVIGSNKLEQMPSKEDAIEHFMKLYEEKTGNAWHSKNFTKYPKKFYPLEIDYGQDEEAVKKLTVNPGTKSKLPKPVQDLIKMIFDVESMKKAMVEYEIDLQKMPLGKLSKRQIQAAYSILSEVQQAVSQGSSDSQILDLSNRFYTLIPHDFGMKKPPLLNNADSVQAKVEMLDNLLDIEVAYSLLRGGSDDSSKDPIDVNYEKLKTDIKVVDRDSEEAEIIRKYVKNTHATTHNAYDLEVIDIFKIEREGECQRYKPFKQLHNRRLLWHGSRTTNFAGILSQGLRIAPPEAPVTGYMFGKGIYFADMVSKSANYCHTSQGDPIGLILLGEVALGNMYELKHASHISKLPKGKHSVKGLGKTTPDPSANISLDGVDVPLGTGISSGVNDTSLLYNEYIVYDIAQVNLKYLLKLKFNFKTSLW", "assay": "In-Cell Western measurement of PARylation in PARP1 WT and knockout cells", "assay_type": "cell-based", "details": "HeLa cells (wide-type with PARP1 gene); hydrogen peroxide-induced PARylation; compounds 30 min, then 10 mM hydrogen peroxide 15 min; read-out: HeLa_WT_IC50", "summary_of_the_method": "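Wild-type and PARP1-knockout HEK-293T and HAP1 cells, plus HeLa, pretreated with compound 30 min, then stimulated with 10 mM hydrogen peroxide for 15 min. Methanol-fixed cells immunostained for PARylation and imaged by In-Cell Western with infrared secondary antibody; IC50 fitted from signal.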", "units": {"IC50": "µM"}, "values": [{"smiles": "CCN1C(=O)Nc2c(F)c(CN3CCN(c4ccc(C(=O)NC5(CC#N)CC5)nc4C)CC3)cc3ncnc1c23", "note": "[Compound I-79, N-(1-(cyanomethyl)cyclopropyl)-5-(4-((3-ethyl-9-fluoro-2-oxo-2,3-dihydro-1H-pyrimido[4,5,6-de]quinazolin-8-yl)methyl)piperazin-1-yl)-6-methylpicolinamide]", "IC50": "≤ 0.01"}, {"smiles": "CCN1C(=O)Nc2c(F)c(CN3CCN(c4ccc(C(=O)NC5CC5)nc4C)CC3)cc3c(=O)n(C)nc1c23", "note": "[Compound I-80, N-cyclopropyl-5-(4-((9-ethyl-6-fluoro-2-methyl-3,8-dioxo-2,7,8,9-tetrahydro-3H-pyridazino[3,4,5-de]quinazolin-5-yl)methyl)piperazin-1-yl)-6-methylpicolinamide]", "IC50": "0.01 to 0.1"}, {"smiles": "CCN1C(=O)Nc2c(F)c(CN3CCN(c4ccc(C(=O)NC5CC5)cc4C)CC3)cc3ncnc1c23", "note": "[Compound I-82, N-cyclopropyl-4-(4-((3-ethyl-9-fluoro-2-oxo-2,3-dihydro-1H-pyrimido[4,5,6-de]quinazolin-8-yl)methyl)piperazin-1-yl)-3-methylbenzamide]", "IC50": "≤ 0.01"}, {"smiles": "CCN1C(=O)Nc2c(F)c(CN3CCN(c4ccc(C(=O)NC5CC5)cc4F)CC3)cc3ncnc1c23", "note": "[Compound I-86, N-cyclopropyl-4-(4-((3-ethyl-9-fluoro-2-oxo-2,3-dihydro-1H-pyrimido[4,5,6-de]quinazolin-8-yl)methyl)piperazin-1-yl)-3-fluorobenzamide]", "IC50": "0.01 to 0.1"}, {"smiles": "CCN1C(=O)Nc2c(F)c(CN3CCN(c4ccc(C(=O)NC5CC5)c(F)c4F)CC3)cc3ncnc1c23", "note": "[Compound I-90, N-cyclopropyl-4-(4-((3-ethyl-9-fluoro-2-oxo-2,3-dihydro-1H-pyrimido[4,5,6-de]quinazolin-8-yl)methyl)piperazin-1-yl)-2,3-difluorobenzamide]", "IC50": "≤ 0.01"}, {"smiles": "CCN1C(=O)Nc2c(F)c(CN3CCN(c4ccc(C(=O)NC5(CC#N)CC5)cc4C)CC3)cc3ncnc1c23", "note": "[Compound I-93, N-(1-(cyanomethyl)cyclopropyl)-4-(4-((3-ethyl-9-fluoro-2-oxo-2,3-dihydro-1H-pyrimido[4,5,6-de]quinazolin-8-yl)methyl)piperazin-1-yl)-3-methylbenzamide]", "IC50": "≤ 0.01"}, {"smiles": "CCN1C(=O)Nc2c(F)c(CN3CCN(c4ccc(C(=O)NC5(CC#N)CC5)cc4F)CC3)cc3ncnc1c23", "note": "[Compound I-94, N-(1-(cyanomethyl)cyclopropyl)-4-(4-((3-ethyl-9-fluoro-2-oxo-2,3-dihydro-1H-pyrimido[4,5,6-de]quinazolin-8-yl)methyl)piperazin-1-yl)-3-fluorobenzamide]", "IC50": "≤ 0.01"}, {"smiles": "CCN1C(=O)Nc2c(F)c(CN3CCN(c4ccc(C(=O)NC5(CC#N)CC5)c(F)c4F)CC3)cc3ncnc1c23", "note": "[Compound I-95, N-(1-(cyanomethyl)cyclopropyl)-4-(4-((3-ethyl-9-fluoro-2-oxo-2,3-dihydro-1H-pyrimido[4,5,6-de]quinazolin-8-yl)methyl)piperazin-1-yl)-2,3-difluorobenzamide]", "IC50": "0.01 to 0.1"}, {"smiles": "CCN1C(=O)Nc2c(F)c(CN3CCN(c4ccc(C(=O)NC5CCC5)nc4C)CC3)cc3ncnc1c23", "note": "[Compound I-96, N-cyclobutyl-5-(4-((3-ethyl-9-fluoro-2-oxo-2,3-dihydro-1H-pyrimido[4,5,6-de]quinazolin-8-yl)methyl)piperazin-1-yl)-6-methylpicolinamide]", "IC50": "≤ 0.01"}]}]}
